The record followed here is patent US20230295130A1, “COMPOUND USEFUL AS CDK7 KINASE INHIBITOR AND USE THEREOF” (TYK MEDICINES, INC., priority 2020, published 2023).

Like-named read-outs stand apart in the source and are kept apart here.

Holding throughout (test): Enzyme activity test, mobility shift assay (Table 1)
Common to all, as to assay type: biochemical

Test [1] deals with CDK9/Cyclin Tl (Homo sapiens (Human), UniProt P50750). The conditions noted are these: 2 mM ATP; read-out: CDK9 kinase IC50. Here is the method:
(§1) The compound powder was dissolved in 100% DMSO to prepare a 10 mM storage solution. The storage solution was further diluted to 0.5 mM as the initial concentration, and continuously diluted 3 times to obtain 10 compound solutions with different concentrations. The compound and enzyme were pre-incubated for 0 minutes and 60 minutes, respectively, using duplicate detection.
(§2) was used as a positive control, and Mobility shift assay method was used to detect CDK kinase (such as CDK7, CDK9, CDK12 and CDK2) activity of the compounds.

Test [2] has as its target CDK2/Cyclin El (Homo sapiens (Human), UniProt P24941). The conditions noted are these: 2 mM ATP; read-out: CDK2 kinase IC50. The procedure:
as §1, §2

The target in test [3] is CDK12 (aa686-1082)/Cyclin K (Homo sapiens (Human), UniProt Q9NYV4). The procedure:
The compound powder was dissolved in 100% DMSO to prepare a 10 mM storage solution. The storage solution was further diluted to 0.5 mM as the initial concentration, and continuously diluted 3 times to obtain 10 compound solutions with different concentrations. The compound and enzyme were pre-incubated for 0 minutes and 60 minutes, respectively, using duplicate detection. Compound Staurosporine having a structural formula of
as §2

In test [4] the target is CDK7/Cyclin H/MAT1 kinase (Homo sapiens (Human), UniProt P50613). The note with it: 2 mM ATP; pre-incubated 0 and 60 minutes. The procedure:
IC50 values of the compounds for CDK7 kinase were detected in Wuxi Biortus Biosciences Co. Ltd.
as §1, §2

Setting [5] is: 2 mM ATP, read-out: CDK12 kinase IC50.

Chain of CDK7/Cyclin H/MAT1 kinase (P50613 whole entry): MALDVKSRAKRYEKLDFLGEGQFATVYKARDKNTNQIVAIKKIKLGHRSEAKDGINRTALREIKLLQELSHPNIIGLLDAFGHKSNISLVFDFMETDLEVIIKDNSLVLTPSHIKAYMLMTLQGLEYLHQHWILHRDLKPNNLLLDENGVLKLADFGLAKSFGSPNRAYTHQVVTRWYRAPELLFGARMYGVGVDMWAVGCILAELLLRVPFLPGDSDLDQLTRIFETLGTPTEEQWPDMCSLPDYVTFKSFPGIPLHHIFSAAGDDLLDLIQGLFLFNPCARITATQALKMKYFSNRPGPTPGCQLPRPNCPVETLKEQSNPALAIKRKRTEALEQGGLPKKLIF
Chain of CDK7/Cyclin H/MAT1 kinase (P51946 whole entry partner): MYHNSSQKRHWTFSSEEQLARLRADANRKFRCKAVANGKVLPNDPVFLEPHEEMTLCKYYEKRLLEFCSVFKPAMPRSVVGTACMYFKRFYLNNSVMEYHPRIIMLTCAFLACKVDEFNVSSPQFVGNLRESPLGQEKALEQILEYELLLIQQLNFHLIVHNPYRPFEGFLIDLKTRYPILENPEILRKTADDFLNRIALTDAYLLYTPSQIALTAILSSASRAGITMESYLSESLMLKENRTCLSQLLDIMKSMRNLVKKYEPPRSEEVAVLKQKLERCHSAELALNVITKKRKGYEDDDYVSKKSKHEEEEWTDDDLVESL
Chain of CDK7/Cyclin H/MAT1 kinase (P51948 whole entry partner): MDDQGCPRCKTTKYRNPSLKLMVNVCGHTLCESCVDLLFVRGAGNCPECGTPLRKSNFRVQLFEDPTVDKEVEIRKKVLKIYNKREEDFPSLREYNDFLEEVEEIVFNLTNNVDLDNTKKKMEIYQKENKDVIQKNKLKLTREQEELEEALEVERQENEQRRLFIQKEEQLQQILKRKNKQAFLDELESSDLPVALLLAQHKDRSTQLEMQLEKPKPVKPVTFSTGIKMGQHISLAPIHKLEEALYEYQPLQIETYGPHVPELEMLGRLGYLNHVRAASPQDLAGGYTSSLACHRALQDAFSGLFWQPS
Chain of CDK9/Cyclin Tl (P50750 whole entry): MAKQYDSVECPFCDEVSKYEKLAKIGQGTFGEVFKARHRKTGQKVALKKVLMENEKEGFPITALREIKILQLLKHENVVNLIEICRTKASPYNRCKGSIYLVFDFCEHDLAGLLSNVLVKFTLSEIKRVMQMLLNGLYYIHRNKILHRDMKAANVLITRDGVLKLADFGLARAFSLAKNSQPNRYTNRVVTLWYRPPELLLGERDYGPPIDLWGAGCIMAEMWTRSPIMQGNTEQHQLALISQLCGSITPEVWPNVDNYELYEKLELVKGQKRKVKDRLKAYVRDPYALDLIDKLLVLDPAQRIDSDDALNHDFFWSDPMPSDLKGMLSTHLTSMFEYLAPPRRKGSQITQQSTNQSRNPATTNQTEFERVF
Chain of CDK9/Cyclin Tl (O60563 whole entry partner): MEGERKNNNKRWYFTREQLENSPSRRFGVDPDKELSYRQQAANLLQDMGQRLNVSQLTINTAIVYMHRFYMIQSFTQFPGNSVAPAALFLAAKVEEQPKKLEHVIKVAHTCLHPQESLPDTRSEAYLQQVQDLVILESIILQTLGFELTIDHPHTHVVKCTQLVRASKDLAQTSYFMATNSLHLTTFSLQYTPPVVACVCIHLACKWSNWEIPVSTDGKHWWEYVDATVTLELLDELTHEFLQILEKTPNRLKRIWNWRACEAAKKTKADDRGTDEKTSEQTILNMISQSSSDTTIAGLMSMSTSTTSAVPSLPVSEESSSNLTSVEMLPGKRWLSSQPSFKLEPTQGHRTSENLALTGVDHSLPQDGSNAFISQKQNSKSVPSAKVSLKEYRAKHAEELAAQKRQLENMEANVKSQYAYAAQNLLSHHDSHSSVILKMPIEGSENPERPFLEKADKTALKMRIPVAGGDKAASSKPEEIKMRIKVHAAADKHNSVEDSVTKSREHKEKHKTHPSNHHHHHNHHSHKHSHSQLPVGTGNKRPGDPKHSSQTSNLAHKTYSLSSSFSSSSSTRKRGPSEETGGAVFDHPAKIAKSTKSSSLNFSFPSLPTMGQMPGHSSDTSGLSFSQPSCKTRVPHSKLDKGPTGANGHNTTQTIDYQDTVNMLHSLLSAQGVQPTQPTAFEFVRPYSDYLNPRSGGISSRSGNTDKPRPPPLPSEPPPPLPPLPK
Chain of CDK12 (aa686-1082)/Cyclin K (Q9NYV4 686-1082): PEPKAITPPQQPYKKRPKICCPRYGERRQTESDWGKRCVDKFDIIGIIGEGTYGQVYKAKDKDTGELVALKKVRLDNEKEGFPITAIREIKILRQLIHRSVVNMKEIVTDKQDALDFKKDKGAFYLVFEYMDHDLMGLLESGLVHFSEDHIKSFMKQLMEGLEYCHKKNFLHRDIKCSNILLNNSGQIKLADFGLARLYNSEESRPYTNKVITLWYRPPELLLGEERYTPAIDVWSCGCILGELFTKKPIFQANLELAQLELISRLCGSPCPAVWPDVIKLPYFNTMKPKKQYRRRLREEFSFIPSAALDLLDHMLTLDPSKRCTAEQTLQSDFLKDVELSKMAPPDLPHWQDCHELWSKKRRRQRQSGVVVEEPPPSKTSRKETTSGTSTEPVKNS
Chain of CDK12 (aa686-1082)/Cyclin K (O75909 whole entry partner, the tested form may be a part): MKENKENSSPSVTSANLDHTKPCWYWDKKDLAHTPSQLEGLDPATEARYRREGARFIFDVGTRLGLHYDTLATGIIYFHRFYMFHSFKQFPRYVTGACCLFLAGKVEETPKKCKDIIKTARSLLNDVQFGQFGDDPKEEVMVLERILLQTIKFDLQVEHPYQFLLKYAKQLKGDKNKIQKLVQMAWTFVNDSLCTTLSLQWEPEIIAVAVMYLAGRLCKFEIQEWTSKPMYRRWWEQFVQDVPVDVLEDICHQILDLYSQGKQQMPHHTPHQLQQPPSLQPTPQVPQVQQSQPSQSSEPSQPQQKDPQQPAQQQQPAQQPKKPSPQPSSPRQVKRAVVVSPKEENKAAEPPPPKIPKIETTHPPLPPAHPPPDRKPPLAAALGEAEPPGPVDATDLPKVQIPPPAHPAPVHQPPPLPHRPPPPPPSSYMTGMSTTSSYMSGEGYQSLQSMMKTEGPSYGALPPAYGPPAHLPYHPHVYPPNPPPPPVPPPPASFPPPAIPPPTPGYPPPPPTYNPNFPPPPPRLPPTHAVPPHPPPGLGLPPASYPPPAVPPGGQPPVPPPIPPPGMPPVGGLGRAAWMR

In general, IC50 refers to the concentration that inhibits the measured activity by half. As to `COC(=O)Nc1ccc2c(-c3nc(N[C@H]4CCC(C)(C)NC4)ncc3C(F)(F)F)c[nH]c2c1C(F)(F)F` [Example T-35], the half-inhibitory concentration (IC50) in test [1] is above 500 nM; in test [2], above 500 nM; in test [3] (setting [5]), above 500 nM; in test [4], below 50 nM.
Consider `CCOC(=O)Nc1ccc2c(-c3nc(N[C@H]4CCC(C)(C)NC4)ncc3C(F)(F)F)c[nH]c2c1C(C)(F)F` [Example T-153], for which the IC50 in test [1] was above 500 nM; in test [2], above 500 nM; in test [3] (setting [5]), above 500 nM; in test [4], below 50 nM.
For `COC(=O)Nc1ccc2c(-c3nc(N[C@@H]4[C@@H]5CNC[C@@H]54)ncc3C(F)(F)F)c[nH]c2c1Br` [Example T-25], the IC50 in test [1] is above 500 nM; in test [2], above 500 nM; in test [3] (setting [5]) it was above 500 nM; in test [4] it was 50 to 500 nM.
For the molecule `COC(=O)Nc1ccc2c(-c3nc(N[C@H]4CCC[C@@H](O)C4)ncc3C(F)(F)F)c[nH]c2c1Br` [Example T-29], the IC50 in test [1], in test [2], in test [3] (setting [5]) and in test [4] was above 500 nM each time.
As to `COC(=O)Nc1ccc2c(-c3nc(N[C@H]4CCC(C)(C)NC4)ncc3C(F)(F)F)c[nH]c2c1OC(F)(F)F` [Example T-109], the IC50 was above 500 nM in test [1], above 500 nM in test [2], above 500 nM in test [3] (setting [5]) and below 50 nM in test [4].
For `COC(=O)Nc1ccc2c(-c3nc(N[C@H]4CCCNC4)ncc3Cl)c[nH]c2c1C(F)(F)F` [Example T-88], the IC50 in test [1] is above 500 nM; in test [2], above 500 nM; in test [3] (setting [5]), above 500 nM; in test [4], below 50 nM.
Regarding `COC(=O)Nc1ccc2c(-c3nc(N[C@H]4CCCN(C)C4)ncc3C(F)(F)F)c[nH]c2c1C(F)F` [Example T-169], the IC50 in test [1] is above 500 nM; in test [2], above 500 nM; in test [3] (setting [5]) it was above 500 nM; in test [4] it was below 50 nM.
`CC1(C)COC(Nc2ccc3c(-c4nc(N[C@H]5CCCNC5)ncc4C(F)(F)F)c[nH]c3c2Br)=N1` [Example T-07]: the IC50 was above 500 nM in test [1], above 500 nM in test [2], above 500 nM in test [3] (setting [5]) and below 50 nM in test [4].
As to `COC(=O)Nc1ccc2c(-c3nc(N[C@H]4CCCNC4)ncc3C(F)(F)F)c[nH]c2c1-c1cnn(C)c1` [Example T-68], the IC50 in test [1] is above 500 nM; in test [2] it was above 500 nM; in test [3] (setting [5]), above 500 nM; in test [4], below 50 nM.
As for `CCOC(=O)Nc1ccc2c(-c3nc(N[C@H]4CCCNC4)ncc3C(F)(F)F)c[nH]c2c1C1CC1` [Example T-127], the IC50 was above 500 nM in test [1], above 500 nM in test [2], above 500 nM in test [3] (setting [5]) and below 50 nM in test [4].
For the molecule `CC(=O)Nc1ccc2c(-c3nc(N[C@H]4CCCNC4)ncc3C(F)(F)F)c[nH]c2c1P(C)(C)=O` [Example T-15], the IC50 in test [1] is above 500 nM; in test [2], above 500 nM; in test [3] (setting [5]), above 500 nM; in test [4] it was below 50 nM.
On to `CC(C)OC(=O)Nc1ccc2c(-c3nc(N[C@H]4CCCNC4)ncc3C(F)(F)F)c[nH]c2c1Br` [Example T-44], for which the IC50 is above 500 nM in test [1], above 500 nM in test [2], above 500 nM in test [3] (setting [5]) and below 50 nM in test [4].
As for `COC(=O)Nc1ccc2c(-c3nc(N[C@H]4CCC(C)(C)NC4)ncc3Cl)c[nH]c2c1OCC(F)(F)F` [Example T-85], the IC50 was above 500 nM in test [1], above 500 nM in test [2], above 500 nM in test [3] (setting [5]) and below 50 nM in test [4].
With `COC(=O)Nc1ccc2c(-c3nc(N[C@H]4CCC[C@@H](N)C4)ncc3C(F)(F)F)c[nH]c2c1Br` [Example T-21], the IC50 in test [1] was above 500 nM; in test [2], above 500 nM; in test [3] (setting [5]), above 500 nM; in test [4] it was 50 to 500 nM.
As to `COC(=O)N(C)c1ccc2c(-c3nc(N[C@H]4CCCNC4)ncc3C(F)(F)F)c[nH]c2c1OC(F)F` [Example T-165], the IC50 in test [1] is above 500 nM; in test [2], above 500 nM; in test [3] (setting [5]), above 500 nM; in test [4] it was below 50 nM.
Consider `COC(=O)Nc1ccc2c(-c3nc(N[C@H]4CCCNC4)ncc3C(F)(F)F)c[nH]c2c1SC(C)C` [Example T-66], for which the IC50 was above 500 nM in test [1], above 500 nM in test [2], above 500 nM in test [3] (setting [5]) and below 50 nM in test [4].
With `COC(=O)Nc1ccc2c(-c3nc(N[C@H]4CCC(C)(C)NC4)ncc3C(F)(F)F)c[nH]c2c1C(C)(F)F` [Example T-136], the IC50 in test [1] is above 500 nM; in test [2], above 500 nM; in test [3] (setting [5]), above 500 nM; in test [4], below 50 nM.
Take `COC(=O)Nc1ccc2c(-c3nc(N[C@H]4CC[C@H](C)NC4)ncc3C(F)(F)F)c[nH]c2c1C1CC1` [Example T-131]: the IC50 in test [1] is above 500 nM; in test [2], above 500 nM; in test [3] (setting [5]), above 500 nM; in test [4] it was 50 to 500 nM.
Consider `COC(=O)Nc1ccc2c(-c3nc(N[C@H]4CCC(C)(C)NC4)ncc3Cl)c[nH]c2c1OC(F)(F)F` [Example T-96], for which the IC50 in test [1] is above 500 nM; in test [2], above 500 nM; in test [3] (setting [5]) it was above 500 nM; in test [4], below 50 nM.
`COC(=O)Nc1ccc2c(-c3nc(N[C@H]4CC[C@@H](C)NC4)ncc3C(F)(F)F)c[nH]c2c1C1CC1` [Example T-130]: the IC50 in test [1] was above 500 nM; in test [2], above 500 nM; in test [3] (setting [5]) it was above 500 nM; in test [4], 50 to 500 nM.
`COC(=O)Nc1ccc2c(-c3nc(N[C@H]4CCCNC4)ncc3C(F)(F)F)c[nH]c2c1` [Example T-16]: the IC50 in test [1] was above 500 nM; in test [2], above 500 nM; in test [3] (setting [5]) it was above 500 nM; in test [4] it was below 50 nM.
For `O=C1CCCN1c1ccc2c(-c3nc(N[C@H]4CCCNC4)ncc3C(F)(F)F)c[nH]c2c1Br` [Example T-04], the IC50 in test [1] is above 500 nM; in test [2], above 500 nM; in test [3] (setting [5]), above 500 nM; in test [4] it was below 50 nM.
`COC(=O)Nc1ccc2c(-c3nc(N[C@H]4CCC(C)(C)NC4)ncc3C(F)(F)F)c[nH]c2c1C(C)=O` [Example T-134]: the IC50 was above 500 nM in test [1], above 500 nM in test [2], above 500 nM in test [3] (setting [5]) and below 50 nM in test [4].
Turning to `COC(=O)Nc1ccc2c(-c3nc(N[C@H]4CCCNC4)ncc3C(F)(F)F)c[nH]c2c1C1COC1` [Example T-84], the IC50 is above 500 nM in test [1], above 500 nM in test [2], above 500 nM in test [3] (setting [5]) and below 50 nM in test [4].
`O=C1OCCCN1c1ccc2c(-c3nc(N[C@H]4CCCNC4)ncc3C(F)(F)F)c[nH]c2c1Br` [Example T-06]: the IC50 was above 500 nM in test [1], above 500 nM in test [2], above 500 nM in test [3] (setting [5]) and below 50 nM in test [4].
As to `COC(=O)Nc1ccc2c(-c3nc(N[C@H]4CC[C@@H](C)NC4)ncc3C(F)(F)F)c[nH]c2c1OCC(F)(F)F` [Example T-151], the IC50 is above 500 nM in test [1], above 500 nM in test [2], above 500 nM in test [3] (setting [5]) and 50 to 500 nM in test [4].
Consider `COC(=O)Nc1ccc2c(-c3nc(NC4CC5(CNC5)C4)ncc3C(F)(F)F)c[nH]c2c1Br` [Example T-19], for which the IC50 is above 500 nM in test [1], above 500 nM in test [2], above 500 nM in test [3] (setting [5]) and below 50 nM in test [4].
Turning to `COC(=O)Nc1ccc2c(-c3nc(N[C@H]4CCC(C)(C)NC4)ncc3C(F)(F)F)c[nH]c2c1C1CC(F)(F)C1` [Example T-106], the IC50 in test [1] is above 500 nM; in test [2] it was above 500 nM; in test [3] (setting [5]) it was above 500 nM; in test [4], below 50 nM.
Turning to `CN[C@@H]1C[C@H]2O[C@@](C)([C@@H]1OC)n1c3ccccc3c3c4c(c5c6ccccc6n2c5c31)C(=O)NC4` [Staurosporine, reference compound], the IC50 in test [3] was above 500 nM.
As for `COC(=O)Nc1ccc2c(-c3nc(N[C@H]4CCC[C@@H]4N)ncc3C(F)(F)F)c[nH]c2c1Br` [Example T-67], the IC50 in test [1] was above 500 nM; in test [2] it was above 500 nM; in test [3] (setting [5]), above 500 nM; in test [4], below 50 nM.
With `COC(=O)Nc1ccc2c(-c3nc(N[C@H]4CCC5(CC5)NC4)ncc3C(F)(F)F)c[nH]c2c1C(C)(F)F` [Example T-137], the IC50 is above 500 nM in test [1], above 500 nM in test [2], above 500 nM in test [3] (setting [5]) and below 50 nM in test [4].
On to `COC(=O)Nc1ccc2c(-c3nc(NC4C5CCNC54)ncc3C(F)(F)F)c[nH]c2c1Br` (stereo not drawn) [Example T-26], for which the IC50 was above 500 nM in test [1], above 500 nM in test [2], above 500 nM in test [3] (setting [5]) and 50 to 500 nM in test [4].
With `COC(=O)N(C)c1ccc2c(-c3nc(N[C@H]4CCCNC4)ncc3C(F)(F)F)c[nH]c2c1Br` [Example T-102], the IC50 in test [1] was above 500 nM; in test [2], above 500 nM; in test [3] (setting [5]), above 500 nM; in test [4] it was below 50 nM.
